From US11304957B2, “Substituted quinazolines for inhibiting kinase activity” (NeuPharma, Inc., priority 2013, dated 2022) come the findings set out here.

Chain of BTK (Q06187 whole entry): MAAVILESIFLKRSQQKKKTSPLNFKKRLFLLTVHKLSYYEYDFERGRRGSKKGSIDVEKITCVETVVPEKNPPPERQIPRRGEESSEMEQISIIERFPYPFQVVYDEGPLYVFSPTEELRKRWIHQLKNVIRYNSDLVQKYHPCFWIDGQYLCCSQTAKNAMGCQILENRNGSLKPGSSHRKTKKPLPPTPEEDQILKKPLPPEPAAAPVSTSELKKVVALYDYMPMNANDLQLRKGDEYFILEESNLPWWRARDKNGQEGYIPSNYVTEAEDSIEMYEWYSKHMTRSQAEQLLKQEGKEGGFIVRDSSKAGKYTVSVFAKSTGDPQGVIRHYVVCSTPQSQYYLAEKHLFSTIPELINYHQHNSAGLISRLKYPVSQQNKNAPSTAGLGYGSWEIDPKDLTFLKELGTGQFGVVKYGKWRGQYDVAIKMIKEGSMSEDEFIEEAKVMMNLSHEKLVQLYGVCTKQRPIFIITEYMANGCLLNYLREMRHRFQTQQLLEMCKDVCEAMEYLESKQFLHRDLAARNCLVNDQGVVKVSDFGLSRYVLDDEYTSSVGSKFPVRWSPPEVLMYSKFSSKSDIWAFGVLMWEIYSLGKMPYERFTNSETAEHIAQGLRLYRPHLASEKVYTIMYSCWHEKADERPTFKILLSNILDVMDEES

The target of this assay is BTK (Homo sapiens (Human), UniProt Q06187). Description: Z'-LYTE kinase inhibition assay, BTK. Conditions: read-out: % inhibition BTK; heading: % inhibition BTK; compound at 0.041 μM. It counts as biochemical. As to the method:
Inhibitory activities of compounds against BTK, EGFR and EGFR mutants (EGFR L858R, EGFR T790M, EGFR L858R/T790M), FGFR1, FGFR2, JAK2, JAK3 and KDR were measured by Invitrogen using Z′-LYTE® Method as briefly described in the following.
Test Compounds are screened in 1% DMSO (final) in the well. For 10 point titrations, 3-fold serial dilutions are conducted from the starting concentration. All ATP Solutions are diluted to a 4× working concentration in Kinase Buffer (50 mM HEPES pH 7.5, 0.01% BRIJ-35, 10 mM MgCl2, 1 mM EGTA). Peptide/Kinase Mixtures are diluted to a 2× working concentration in the appropriate Kinase Buffers as described below.
(v) Peptide/Kinase Mixtures for Measurement of BTK:
The 2×BTK/Tyr 01 mixture is prepared in 50 mM HEPES pH 7.5, 0.01% BRIJ-35, 10 mM MgCl2, 1 mM EGTA.
The mixture is then incubated for another 60-minute at room temperature for development reaction. Finally fluorescence is read by plate reader.
To determine IC50 of a compound against EGFR, EGFR mutant and other kinases, a series of concentrations of the compound were tested for the inhibition. […] The scale utilized in Table 4 is as follows: +++ less than 100 nM, ++ 100-500 nM and + greater than 500 nM.
In general, inhibition refers to the relative decrease from the control value, in per cent. For the compound `Fc1cccc(-c2cccc3cnc(Nc4ccc(N5CCOCC5)cc4)nc23)c1` [Example C009, 8-(3-fluorophenyl)-N-(4-morpholinophenyl)quinazolin-2-amine], the inhibition at 0.041 µM was under 50%.
As for `Clc1ccccc1-c1cccc2cnc(Nc3ccc(N4CCNCC4)cc3)nc12` [Example C026, 8-(2-chlorophenyl)-N-(4-(piperazin-1-yl)phenyl)quinazolin-2-amine], the figure is under 50%; as for `C=CC(=O)Nc1cccc(-c2cccc3cnc(Nc4ccc(OCCN5CCC5)cc4)nc23)c1` [Example C109, N-(3-(2-((4-(2-(azetidin-1-yl)ethoxy)phenyl)amino)quinazolin-8-yl)phenyl)acrylamide], over 50%.
As for `C=CC(=O)Nc1cccc(-c2cccc3cnc(Nc4ccc(OCCN(C)C)cc4)nc23)c1` [Example C110, N-(3-(2-((4-(2-(dimethylamino)ethoxy)phenyl)amino)quinazolin-8-yl)phenyl)acrylamide], the figure is over 50%; as for `C=CC(=O)Nc1cccc(-c2cccc3cnc(Nc4ccc(O[C@H]5CCOC5)cc4)nc23)c1` [Example C113, (S)-N-(3-(2-((4-((tetrahydrofuran-3-yl)oxy)phenyl)amino)quinazolin-8-yl)phenyl)acrylamide], over 50%; as for `C=CC(=O)Nc1cccc(-c2cccc3cnc(Nc4ccc(N[C@@H]5CCOC5)cc4)nc23)c1` [Example C115, (R)-N-(3-(2-((4-((tetrahydrofuran-3-yl)amino)phenyl)amino)quinazolin-8-yl)phenyl)acrylamide], over 50%.
As for `C=CC(=O)Nc1cccc(-c2cccc3cnc(Nc4ccc(N5CCNC(=O)C5)cc4)nc23)c1` [Example C117, N-(3-(2-((4-(3-oxopiperazin-1-yl)phenyl)amino)quinazolin-8-yl)phenyl)acrylamide], the figure is over 50%; as for `C=CC(=O)Nc1cccc(-c2cccc3cnc(Nc4ccc(NC5CCN(C)CC5)cc4)nc23)c1` [Example C118, N-(3-(2-((4-((1-methylpiperidin-4-yl)amino)phenyl)amino)quinazolin-8-yl)phenyl)acrylamide], over 50%; as for `C=CC(=O)Nc1cccc(-c2cccc3cnc(Nc4ccc(O[C@@H]5CCOC5)cc4)nc23)c1` [Example C119, (R)-N-(3-(2-((4-((tetrahydrofuran-3-yl)oxy)phenyl)amino)quinazolin-8-yl)phenyl)acrylamide], over 50%.
`C=CC(=O)Nc1cccc(-c2cccc3cnc(Nc4ccc(NC5CCN(C(C)=O)CC5)cc4)nc23)c1` [Example C120, N-(3-(2-((4-((1-acetylpiperidin-4-yl)amino)phenyl)amino)quinazolin-8-yl)phenyl)acrylamide]: the inhibition at 0.041 µM was over 50%.
For `C=CC(=O)Nc1cccc(-c2cccc3cnc(Nc4ccc(O[C@H]5CCN(C)C5)cc4)nc23)c1` [Example C121, (S)-N-(3-(2-((4-((1-methylpyrrolidin-3-yl)oxy)phenyl)amino)quinazolin-8-yl)phenyl)acrylamide], the inhibition at 0.041 µM is over 50%.
`C=CC(=O)Nc1cccc(-c2cccc3cnc(Nc4ccc(OC5CN(C(C)=O)C5)cc4)nc23)c1` [Example C122, N-(3-(2-((4-((1-acetylazetidin-3-yl)oxy)phenyl)amino)quinazolin-8-yl)phenyl)acrylamide]: the inhibition at 0.041 µM was over 50%.
As to `C=CC(=O)Nc1cccc(-c2cccc3cnc(Nc4ccc(O[C@@H]5CCN(C)C5)cc4)nc23)c1` [Example C123, (R)-N-(3-(2-((4-((1-methylpyrrolidin-3-yl)oxy)phenyl)amino)quinazolin-8-yl)phenyl)acrylamide], the inhibition at 0.041 µM is over 50%.
In the case of `C=CC(=O)Nc1cccc(-c2cccc3cnc(Nc4ccc(NC5CN(C(C)=O)C5)cc4)nc23)c1` [Example C124, N-(3-(2-((4-((1-acetylazetidin-3-yl)amino)phenyl)amino)quinazolin-8-yl)phenyl)acrylamide] it was over 50%.
